# Reference: ChEMBL document CHEMBL3785036 (J Pharm Sci, 1974)
# Columns and labels:
# Assay type in all cases: ADME, organism-based
# [1] = Drug metabolism in human slow inactivators assessed as excretion of isonicotinic acid in urine at 1 g, iv by colorimetry; conditions: in vivo
# [2] = Drug metabolism in human slow inactivators assessed as excretion of 1,2-diacetylhydrazine in urine at 1 g, iv by colorimetry; conditions: in vivo
# [3] = Drug excretion in human subject slow inactivator assessed as sum of isoniazid plus hydrazones, acetylisoniazid, isonicotinic acid and isonicotinuric acid level in urine at 681 mg, iv infused at constant rate 5.4 min measured 59.1 mins after start of drug injection by colorimetry; conditions: in vivo, 0.985 h
# [4] = Drug excretion in human subject slow inactivator assessed as sum of isoniazid plus hydrazones, acetylisoniazid, isonicotinic acid and isonicotinuric acid level in urine at 681 mg, iv infused at constant rate 5.4 min measured 116 mins after start of drug injection by colorimetry; conditions: in vivo
# [5] = Drug excretion in human subject slow inactivator assessed as sum of isoniazid plus hydrazones, acetylisoniazid, isonicotinic acid and isonicotinuric acid level in urine at 681 mg, iv infused at constant rate 5.4 min measured 181 mins after start of drug injection by colorimetry; conditions: in vivo
# [6] = Drug excretion in human subject slow inactivator assessed as sum of isoniazid plus hydrazones, acetylisoniazid, isonicotinic acid and isonicotinuric acid level in urine at 681 mg, iv infused at constant rate 5.4 min measured 208.7 mins after start of drug injection by colorimetry; conditions: in vivo, 3.47833 h
# [7] = Drug excretion in human subject rapid inactivator assessed as total isonicotinoyl compound level in urine at 670 mg, iv infused at constant rate 5.2min measured 516 mins after start of drug injection by colorimetry; conditions: in vivo
# [8] = Drug excretion in human subject slow inactivator assessed as sum of isoniazid plus hydrazones, acetylisoniazid, isonicotinic acid and isonicotinuric acid level in urine at 681 mg, iv infused at constant rate 5.4 min measured 305 mins after start of drug injection by colorimetry; conditions: in vivo
# [9] = Drug excretion in human subject slow inactivator assessed as sum of isoniazid plus hydrazones, acetylisoniazid, isonicotinic acid and isonicotinuric acid level in urine at 681 mg, iv infused at constant rate 5.4 min measured 370.3 mins after start of drug injection by colorimetry; conditions: in vivo, 6.17167 h
# [10] = Drug excretion in human subject slow inactivator assessed as sum of isoniazid plus hydrazones, acetylisoniazid, isonicotinic acid and isonicotinuric acid level in urine at 681 mg, iv infused at constant rate 5.4 min measured 396 mins after start of drug injection by colorimetry; conditions: in vivo, 6.6 h
# [11] = Drug excretion in human subject slow inactivator assessed as sum of isoniazid plus hydrazones, acetylisoniazid, isonicotinic acid and isonicotinuric acid level in urine at 681 mg, iv infused at constant rate 5.4 min measured 613 mins after start of drug injection by colorimetry; conditions: in vivo
# [12] = Drug excretion in human subject slow inactivator assessed as total isonicotinoyl compound level in urine at 681 mg, iv infused at constant rate 5.4 min measured 181 mins after start of drug injection by colorimetry; conditions: in vivo
# [13] = Drug excretion in human subject slow inactivator assessed as total isonicotinoyl compound level in urine at 681 mg, iv infused at constant rate 5.4 min measured 243.5 mins after start of drug injection by colorimetry; conditions: in vivo
# [14] = Drug excretion in human subject slow inactivator assessed as total isonicotinoyl compound level in urine at 681 mg, iv infused at constant rate 5.4 min measured 305 mins after start of drug injection by colorimetry; conditions: in vivo
# [15] = Drug excretion in human subject slow inactivator assessed as total isonicotinoyl compound level in urine at 681 mg, iv infused at constant rate 5.4 min measured 370.3 mins after start of drug injection by colorimetry; conditions: in vivo, 6.17167 h
# [16] = Drug excretion in human subject slow inactivator assessed as total isonicotinoyl compound level in urine at 681 mg, iv infused at constant rate 5.4 min measured 496 mins after start of drug injection by colorimetry; conditions: in vivo
# [17] = Drug excretion in human subject slow inactivator assessed as total isonicotinoyl compound level in urine at 681 mg, iv infused at constant rate 5.4 min measured 554 mins after start of drug injection by colorimetry; conditions: in vivo
# [18] = Drug excretion in human subject slow inactivator assessed as total isonicotinoyl compound level in urine at 681 mg, iv infused at constant rate 5.4 min measured 586 mins after start of drug injection by colorimetry; conditions: in vivo
# [19] = Drug excretion in human rapid inactivators urine assessed as isoniazid plus hydrazones level at 1 g, iv by colorimetry; conditions: in vivo
# [20] = Drug excretion in human rapid inactivators urine assessed as isonicotinuric acid level at 1 g, iv by colorimetry; conditions: in vivo
# [21] = Drug excretion in human slow inactivators urine assessed as acetylisoniazid level at 1 g, iv by colorimetry; conditions: in vivo
# [22] = Drug metabolism in human rapid inactivators assessed as excretion of pyruvic acid isonicotinoylhydrazone in urine at 1 g, iv by colorimetry; conditions: in vivo
# [23] = Drug metabolism in human rapid inactivators assessed as excretion of 1,2-diacetylhydrazine in urine at 1 g, iv by colorimetry; conditions: in vivo
# [24] = Drug excretion in human slow inactivators urine at 1 g, iv by colorimetry; conditions: in vivo
# [25] = Drug excretion in human subject rapid inactivator assessed as sum of isoniazid plus hydrazones, acetylisoniazid, isonicotinic acid and isonicotinuric acid level in urine at 670 mg, iv infused at constant rate 5.2min measured 32 mins after start of drug injection by colorimetry; conditions: in vivo
# [26] = Drug excretion in human subject rapid inactivator assessed as sum of isoniazid plus hydrazones, acetylisoniazid, isonicotinic acid and isonicotinuric acid level in urine at 670 mg, iv infused at constant rate 5.2min measured 94 mins after start of drug injection by colorimetry; conditions: in vivo
# [27] = Drug excretion in human subject rapid inactivator assessed as sum of isoniazid plus hydrazones, acetylisoniazid, isonicotinic acid and isonicotinuric acid level in urine at 670 mg, iv infused at constant rate 5.2min measured 195 mins after start of drug injection by colorimetry; conditions: in vivo, 3.25 h
# [28] = Drug excretion in human subject rapid inactivator assessed as sum of isoniazid plus hydrazones, acetylisoniazid, isonicotinic acid and isonicotinuric acid level in urine at 670 mg, iv infused at constant rate 5.2min measured 400 mins after start of drug injection by colorimetry; conditions: in vivo
# [29] = Drug excretion in human subject rapid inactivator assessed as sum of isoniazid plus hydrazones, acetylisoniazid, isonicotinic acid and isonicotinuric acid level in urine at 670 mg, iv infused at constant rate 5.2min measured 426 mins after start of drug injection by colorimetry; conditions: in vivo
# [30] = Drug excretion in human subject rapid inactivator assessed as sum of isoniazid plus hydrazones, acetylisoniazid, isonicotinic acid and isonicotinuric acid level in urine at 670 mg, iv infused at constant rate 5.2min measured 486 mins after start of drug injection by colorimetry; conditions: in vivo, 8.1 h
# [31] = Drug excretion in human subject rapid inactivator assessed as total isonicotinoyl compound level in urine at 670 mg, iv infused at constant rate 5.2min measured 126 mins after start of drug injection by colorimetry; conditions: in vivo, 2.1 h
# [32] = Drug excretion in human subject rapid inactivator assessed as total isonicotinoyl compound level in urine at 670 mg, iv infused at constant rate 5.2min measured 335 mins after start of drug injection by colorimetry; conditions: in vivo
smiles,measurement,setting,value
NNC(=O)c1ccncc1 [ISONIAZID],Drug metabolism,[1],18.1 %molar
same,Drug metabolism,[2],32.3 %molar
same,Drug excretion,[3],30.44 mg
same,Drug excretion,[4],32.27 mg
same,Drug excretion,[5],34.76 mg
same,Drug excretion,[6],28.41 mg
same,Drug excretion,[7],17 mg
same,Drug excretion,[8],27.92 mg
same,Drug excretion,[9],26.76 mg
same,Drug excretion,[10],17.18 mg
same,Drug excretion,[11],11.202 mg
same,Drug excretion,[12],33.6 mg
same,Drug excretion,[13],36.2 mg
same,Drug excretion,[14],27.3 mg
same,Drug excretion,[15],26.6 mg
same,Drug excretion,[16],13.5 mg
same,Drug excretion,[17],13.1 mg
same,Drug excretion,[18],12.7 mg
same,Drug excretion,[19],99.6%
same,Drug excretion,[20],101%
same,Drug excretion,[21],97%
same,Drug metabolism,[22],2.9 %molar
same,Drug metabolism,[23],48.4 %molar
same,Drug excretion,[24],12.7 %molar
same,Drug excretion,[25],42.1 mg
same,Drug excretion,[26],48.1 mg
same,Drug excretion,[27],57.7 mg
same,Drug excretion,[28],17.9 mg
same,Drug excretion,[29],16.5 mg
same,Drug excretion,[30],13 mg
same,Drug excretion,[31],43.4 mg
same,Drug excretion,[32],29.6 mg
